A short description of data set [1]: Protein binding in patients. The settings on record: human, in vivo.
Another data set concerns QTc interval. The experiment in a line: Cardiac electrophysiology: QTc interval in dose escalation and dose expansion study (187 patients). The note with it: large effect = ≥20 ms.
For data set [2], the system named is FGFR phosphorylation and signaling. Nature of the data set: FGFR phosphorylation and signaling in cell lines expressing FGFR genetic alterations. Type of data set: cell-based. The note with it: cell lines with FGFR genetic alterations.
Data set [3] concerns locally advanced or metastatic urothelial carcinoma with FGFR alterations. Nature of the data set: Study BLC3001 (NCT03390504, THOR) Cohort 1: efficacy of erdafitinib versus chemotherapy. The class given is in vivo, human. The protocol: Subjects are assigned to Cohort 1 or Cohort 2 based upon prior treatment with an anti-PD-(L)1 agent. […] Cohort 1 and Cohort 2 are assessed independently.
Each potential subject must satisfy all of the following criteria to be enrolled in the study: • 1. ≥18 years of age (or the legal age of consent in the jurisdiction in which the study is taking place) • 2. […] Minor components (<50% overall) of variant histology such as glandular or squamous differentiation, or evolution to more aggressive phenotypes such as sarcomatoid or micropapillary change are acceptable • 3. Metastatic or surgically unresectable urothelial cancer • 4. Documented progression of disease, defined as any progression that requires a change in treatment, prior to randomization • 5. Prior treatment with an anti-PD-(L)1 agent as monotherapy or as combination therapy; no more than 2 prior lines of systemic treatment. […] These subjects will however still be eligible only for Cohort 1.
Each dose should be taken at approximately the same time each day, with or without food. The study drug is to be taken with approximately 240 mL (8 ounces) of water. The tablets should be swallowed intact and subjects should not attempt to dissolve them in water, tablets must not be broken or chewed. Subjects should avoid consuming grapefruit or Seville oranges due to CYP450 3A4/5 inhibition.
No concomitant treatment is required for these subjects.
Subjects randomized to chemotherapy in Arm 1B (see FIG. 1) receive vinflunine 320 mg/m2 as a 20-minute intravenous infusion once every 3 weeks or docetaxel 75 mg/m2 as a 1-hour intravenous infusion every 3 weeks. Treatment with either agent will be administered until disease progression, intolerable toxicity, withdrawal of consent or decision by the investigator to discontinue treatment.
The primary endpoint is OS. The primary efficacy analysis is based on the Intent-to-Treat (ITT) population that includes all randomized subjects in each cohort. The Kaplan-Meier method is used to estimate the distribution of OS for each treatment group within each cohort. The stratified log-rank test is used to compare survival curves of OS between the 2 treatment arms. The stratification factors to be used in the analysis are as follows: region (North America vs EU vs rest of world), ECOG performance status (0 or 1 vs 2), and disease distribution (presence vs absence of visceral metastases: lung, liver, or bone). Pre-specified strata combining will be implemented when some strata have too few OS events.
The secondary efficacy endpoints are PFS, ORR (achievement of objective response), and Safety. Secondary end points also included DOR, change from baseline in patient reported outcomes (Functional Assessment of Cancer Therapy—Bladder Cancer, Patient-Global Impression of Severity, and the European Quality of Life—5 Dimensions—5 Levels). PFS is analyzed the same as OS. Kaplan-Meier method is used to estimate the distribution of DOR. ORR is analyzed by Cochran-Mantel-Haenszel chi-square test for randomized subjects with measurable disease at baseline. The analyses of the secondary efficacy endpoints include all randomized subjects (ITT subjects) unless otherwise specified. The family-wise type 1 error is strongly controlled at 5% (2-sided) for the secondary efficacy endpoints.
Ophthalmologic examination at baseline included an Amsler grid test, optical coherence tomography scan (OCT), and ophthalmologic evaluation. An Amsler grid test was conducted at every cycle. Repeat OCT was done as clinically indicated based on the Amsler grid test or clinical assessment.
O'Brien-Fleming boundaries were applied, implemented by the Lan-DeMets spending function for a total Type I error of 0.05. […] Stopping for futility was possible if the hazard ratio at the interim analysis exceeded 1.0, considering the totality of the data.
Descriptive subgroup analyses were conducted, but with no adjustment for multiplicity.

The structures appear in SMILES notation. Entries after “also recorded” stand apart in the source; their conditions may differ.

The molecule `COc1cc(OC)cc(N(CCNC(C)C)c2ccc3ncc(-c4cnn(C)c4)nc3c2)c1` [Erdafitinib, N-(3,5-dimethoxyphenyl)-N′-(1-methylethyl)-N-[3-(1-methyl-1H-pyrazol-4-yl)quinoxalin-6-yl]ethane-1,2-diamine] showed a fraction unbound in data set [1] of 0.003. Also, in the data set with QTc interval, the “Effect on QTc interval” value is reported as “no large effect (i.e., ≥20 ms) on the QTc interval”. Moreover, the “FGFR phosphorylation and signaling” value in data set [2] was “inhibited FGFR phosphorylation and signaling”. Besides, in data set [3] (ITT), the “Disease control rate (CR + PR + SD)” value is reported as 112 (82.4%) n (%) and the “Progression-free survival (PFS): number of events (%)” value is on record as 101 (74.3%) number (%). Further, in data set [3] (ITT, 8 mg oral once daily, up-titration to 9 mg, chemotherapy docetaxel or vinflunine), the “Overall Survival (OS): number of events (%)” value is on record as 77 (56.6%) number (%). For the same molecule, the “Objective response rate, ORR (CR + PR)” value in data set [3] (ITT, RECIST v1.1, investigator) is 62 (45.6%) n (%). Moreover, the “OS events (deaths)” value in data set [3] (ITT, at data cut, ~75% information fraction, count) turned out to be 77. In addition, in data set [3] (ITT, at data cut, count), the PFS events came out at 101. In addition, in data set [3] (ITT, best overall response), the “Not evaluable (NE)” value was 10 (7.4%) n (%) and the “Progressive disease (PD)” value is reported as 14 (10.3%) n (%). In data set [3] (ITT, best overall response, RECIST v1.1, investigator), the “Complete response, CR (%)” value is 9 (6.6%) n (%). Also, in data set [3] (ITT, investigator), the “Complete response (CR)” value came out at 6.6% and the “Partial response (PR)” value amounted to 39.0%. For the same molecule, in data set [3] (estimated, (95% CI)), the “Patients alive at 6 months” value was 85% (95% CI, 77 to 90) and the “Patients alive at 12 months” value was 51% (95% CI, 41 to 60). Further, the “Median overall survival (years)” value in data set [3] (mUC and FGFR alt after prior anti-PD-(L)1) is recorded as “about 1 year”. Moreover, in data set [3] (versus chemotherapy), the “Improvement of disease control rate” value is reported as “about 39%”; the “Objective response outcome in words” value was “approximately a four-fold higher probability of achieving an objective response; also recorded: The superiority of Erdafitinib relative to chemotherapy, in terms of ORR, was established; also recorded: significantly greater for Erdafitinib, with similar DOR; also recorded: generally consistent in the subgroups evaluated”; the “Overall survival outcome in words” value was “The superiority of Erdafitinib relative to chemotherapy, in terms of OS, was established; also recorded: generally consistent across clinically meaningful subgroups including age group, FGFR alteration type, baseline ECOG PS, presence/absence of visceral metastases and PD-L1 status; also recorded: significantly prolonged or extended OS compared to chemotherapy; also recorded: consistent across clinically relevant subgroups; also recorded: significantly longer with erdafitinib versus chemotherapy; also recorded: significantly prolonged median overall survival compared with chemotherapy”; the “Progression-free survival outcome in words” value was “The superiority of Erdafitinib relative to chemotherapy, in terms of PFS, was established; also recorded: significantly prolonged PFS; also recorded: generally consistent in the subgroups evaluated”. In data set [3] (≥2 consecutive assessments), the “Confirmed complete response (CR)” value turned out to be 5.1% and the “Confirmed partial response (PR)” value was 30.1%.

Source of the values: patent US20260345596A1, “TREATMENT OF LOCALLY ADVANCED OR METASTATIC UROTHELIAL CARCINOMA WITH ERDAFINITIB” (priority 2023, published 2026).
